Experimental findings from patent US10087142B2, “Azetidine derivatives useful as modulators of cortical cathecolaminergic neurotransmission” (Integrative Research Laboratories Sweden AB, priority 2015, dated 2018) are described below.

Assay [1] concerns non-pre-treated Sprague-Dawley rats. The assay is described as follows: Locomotor activity in drug-naïve rats (behaviour test). The class given is in vivo, rat. Conditions: recorded 60 minutes, n = 5. On the procedure:
The effect of compounds in the present disclosure on locomotor activity in drug-naïve rats was also investigated. The animals were placed in the motility meters immediately after drug administration and locomotor activity was recorded for 60 minutes (counts/60 min±SEM). The results are presented as percent of control.
Behavioural activity was measured using eight Digiscan activity monitors (RXYZM (16) TAO, Omnitech Electronics, Columbus, Ohio, USA), connected to an Omnitech Digiscan analyzer and an Apple Macintosh computer equipped with a digital interface board (NB DIO-24, National Instruments, USA). Each activity monitor consisted of a quadratic metal frame (W×L=40 cm×40 cm) equipped with photo beam sensors. During measurements of behavioural activity, a rat was put in a transparent acrylic cage (W×L×H, 40×40×30 cm) which in turn was placed in the activity monitor. Each activity monitor was equipped with three rows of infrared photo beam sensors, each row consisting of 16 sensors. Two rows were placed along the front and the side of the floor of the cage, at a 90° angle, and the third row was placed 10 cm above the floor to measure vertical activity. Photo beam sensors were spaced 2.5 cm apart. Each activity monitor was fitted in an identical sound and light attenuating box containing a weak house light and a fan.
The computer software was written using object oriented programming (LabVIEW™, National instruments, Austin, Tex., USA).
Behavioural data from each activity monitor, representing the position (horizontal center of gravity and vertical activity) of the animal at each time, were recorded at a sampling frequency of 25 Hz and collected using a custom written LABView™ application. The data from each recording session were stored and analyzed with respect to distance traveled. Each behavioural recording session lasted 60 min, starting approximately 5 min after the injection of test compound.
Compounds disclosed herein have been tested for effects on spontaneous locomotor activity in non-pre-treated Sprague-Dawley rats (based on accumulated distance traveled 0-60 min post dosing), and with doses up to 33 μmol/kg (s.c.).

The test system of assay [2] is monoamine transmitters (NA, DA and 5-HT). The assay is described as follows: In vivo brain microdialysis of monoamines in striatum and frontal cortex. As to conditions: rats; for response vs control in vivo at 16.7 µmol/kg: Rattus norvegicus, sc. Also on record: species or system rat. An excerpt:
The microdialysis technique (See, for instance, Collin and Ungerstedt, Microdialysis: user's guide, Carnegie Medicin, Stockholm, 1988) is a well-established technique for measuring extracellular levels of neurotransmitters (Ungerstedt, J Int Med, 1991, 230; 365-73). The microdialysis technique was used to measure the effect of compounds disclosed herein upon the efflux of monoamine transmitters (NA, DA and 5-HT) in striatum and frontal cortex in conscious, freely moving rats.
Male Sprague-Dawley rats weighing 280-320 g were used throughout the experiments. Before the experiment the animals were housed in groups, maximum five animals in each cage, with free access to water and food. The animals were housed at least one week prior to surgery and use in the experiments.
A modified version (Waters et al., J Neural Transm Gen Sect, 1994, 98(1); 39-55) of the I-shaped probe (Santiago and Westerink, N-S Arch Pharmacol, 1990, 342; 407-14) with the AN69 polyacrylonitrile/sodium methyl sulfonate copolymer (HOSPAL; o.d/i.d. 310/220 μm: dialysis membrane (Gambro, Lund, Sweden) was used in the microdialysis experiments. In the dorsal striatum, probes with an exposed length of 3 mm of dialysis membrane were used and in the prefrontal cortex the corresponding length was 2.5 mm. The rats were operated under isoflurane inhalation anesthesia while mounted into a Kopf stereotaxic instrument. Coordinates were calculated relative to bregma; dorsal striatum AP+1.0, ML±2.6, DV 6.2; Pf cortex, AP 15+3.2, ML+1.2, DV −4.08°, according to Paxinos and Watson (New York, Academic Press, 1986; FIG. 8 and FIG. 14). The dialysis probe was positioned in a burr hole under stereotaxic guidance and cemented with phosphatine dental cement (DAB Dental).
The rats were housed individually in cages for 48 h before the dialysis experiments, allowing them to recover from surgery and minimizing the risk of drug interactions with the anesthetics during the following experiments. During this period the rats had free access to food and water.
On the day of the experiment the rats were connected to a micro-perfusion pump via a swivel and were replaced in the cage where they could move freely within its confinements. The perfusion medium was a Ringer's solution containing (in mmol/I): NaCl; 140, CaCl2; 1.2, KCl; 3.0, MgCl2; 1.0 (Moghaddam and Bunney. Neurochem., 1989, 53; 652-4). The pump was set to a perfusion speed of 2 μl/min and 40 μl sample volume were collected every 20 min.
The rats were perfused for at least 40 min before sampling began. Five fractions of each 20 min were collected and the last three were used for the establishment of the baseline. After collection of baseline fractions, the pharmacological challenge to the dialysis experiment started. Test compounds were administrated by injection (s.c.) in a volume of 5 ml/kg, with 0.9% NaCl (saline) as vehicle.
The analytical method were based on two chromatographic separations dedicated for amines or acids. Two chromatographic systems shared a common auto injector with a 10-port valve and two sample loops for simultaneous injection on the two systems.
The acids were separated by reversed phase chromatography while the amines were separated by reversed phase ion pairing chromatography preceded by a reverse phase separation in a column switching configuration. Three separation columns (Luna C18 (2), dp 3 μm, 2 mm i.d., Phenomenex) of different lengths were used. Electrochemical detection was accomplished on glassy carbon electrodes (MF-1000, Bioanalytical Systems, Inc.)
The aqueous mobile phase (0.6 ml/min) for the acid system contained citric acid (40 mM, dipotassium hydrogen phosphate 10 mM, methanol 8-11% (v/v) and EDTA 0.1 mM. Column length was 30 mm and detection potential relative to Ag/AgCl reference was 0.74V. […]

The mark [3] stands for this setting: 50 μmol/kg s.c., striatum dialysate.
Setting [4] is: 16.7 μmol/kg s.c., striatum dialysate, read-out: DA Stri ± SEM, maximum effect compared to baseline.
Setting [5] is: 16.7 μmol/kg s.c., frontal cortex dialysate, Fumarate Salt.
Where [6] appears, read: 16.7 μmol/kg s.c., striatum dialysate, Fumarate Salt.

The structures appear in SMILES notation. Where two headings read alike, the source gives them in different places. Marks after values point to notes of the source that are not given here.

Regarding `Cl.Fc1cccc(C(F)C2CNC2)c1F` (single isomer, unassigned; (-)) [Example 1, (−)-3-[(2,3-Difluorophenyl)(Fluoro)Methyl]Azetidine Hydrochloric Acid Salt], the figures for the “locomotor activity, percent of control means” value (“locomotor activity, percent” for short) in assay [1] (11 μmol/kg s.c.) and in assay [1] (33 μmol/kg s.c.) were 61% and 91%, respectively. Moreover, the “NA Stri ± SEM, maximum effect compared to baseline” value is 150 ± 30^c percent of control in assay [2] (16.7 μmol/kg s.c., striatum dialysate) and 145^a percent of control in assay [2] (setting [3]). Also, the “5-HT FC ± SEM, maximum effect compared to baseline” value in assay [2] (50 μmol/kg s.c., frontal cortex dialysate) is on record as 188 ± 16^c percent of control. Further, the “5-HT Stri ± SEM, maximum effect compared to baseline” value in assay [2] (setting [3]) was 184^a percent of control. In assay [2] (setting [3]), the “DA Stri ± SEM, maximum effect compared to baseline” value is on record as 204 ± 90^b percent of control. Also, the response vs control in vivo at 16.7 µmol/kg in assay [2] (16.7 μmol/kg s.c., frontal cortex dialysate, read-out: 5-HT FC ± SEM, maximum effect compared to baseline) is 146 ± 8%; in assay [2] (16.7 μmol/kg s.c., frontal cortex dialysate, read-out: DA FC ± SEM, maximum effect compared to baseline), 495 ± 58%; in assay [2] (16.7 μmol/kg s.c., frontal cortex dialysate, read-out: NA FC ± SEM, maximum effect compared to baseline), 688 ± 102%; in assay [2] (16.7 μmol/kg s.c., striatum dialysate, read-out: 5-HT Stri ± SEM, maximum effect compared to baseline) it was 171 ± 21%; in assay [2] (setting [4]), 135 ± 19%.

As to `Fc1cc(F)cc(C(F)C2CNC2)c1.O=C(O)/C=C/C(=O)O` (single isomer, unassigned; (-)) [Example 3, (−)-3-[(3,5-Difluorophenyl)(Fluoro)Methyl]Azetidine Fumarate Salt], in assay [1] (11 μmol/kg s.c.), the “locomotor activity, percent” value was 68%. The “locomotor activity, percent” value in assay [1] (33 μmol/kg s.c.) is recorded as 46%. Further, in assay [2] (setting [5]), the “5-HT FC ± SEM, maximum effect compared to baseline” value is listed as 137 ± 16^c percent of control; the “DA FC ± SEM, maximum effect compared to baseline” value is on record as 444 ± 51^c percent of control; the “NA FC ± SEM, maximum effect compared to baseline” value is on record as 534 ± 45^c percent of control. Moreover, in assay [2] (setting [6]), the “5-HT Stri ± SEM, maximum effect compared to baseline” value is reported as 124 ± 6^c percent of control and the “NA Stri ± SEM, maximum effect compared to baseline” value is 137^a percent of control. The response vs control in vivo at 16.7 µmol/kg in assay [2] (setting [4]) was 116 ± 4%.
